# Patent US8372967B2, “Compounds and methods for modulating expression of GCCR” (Isis Pharmaceuticals, Inc., priority 2006, dated 2013)
# Strand notation (5' to 3'): a small letter for the sugar, then the base; units joined by * are phosphorothioate-linked, units joined directly phosphodiester-linked; [ ] holds rarer units or linkages, { } end groups; capitals alone tell only the bases. e = 2'-O-(2-methoxyethyl) (MOE); l = locked nucleic acid (LNA); [5mC] = 5-methylcytosine; d = 2'-deoxy (DNA)
# Experiments:
# monkey GCGR mRNA = test: Antisense inhibition of GCGR in primary monkey hepatocytes (Table 80); type: cell-based; details: relative to untreated control cells
# Description: Additional short antisense compounds targeted to a GCGR nucleic acid were tested for their effects on monkey GCGR mRNA in vitro. Cultured primary monkey hepatocytes were treated as described herein with 25, 50, 100 or 200 nM of short antisense compound. After the treatment period, RNA was isolated from the cells and GCGR mRNA levels were measured by quantitative real-time PCR, as described herein. GCGR mRNA levels were adjusted according to total RNA content as measured by RIBOGREEN®. Results are presented in Table 80 as percent reduction in GCGR mRNA, relative to untreated control cells.
# PTEN mRNA = PTEN mRNA levels in liver, kidney and fat, Balb/c mice, single i.p. 8 μmol/kg (Table 48); type: in vivo, mouse; details: 72 h, saline = 100
# Excerpt: Each dose group consisted of four animals. Shown in Table 46 are the sequences and motifs of the PTEN antisense compounds used in this study. Bolded residues indicate 2′-O-methoxyethyl moieties (2′-MOE) and italicized residues indicate Methyleneoxy BNA nucleotides. Each antisense compound comprises phosphorothioate linkages throughout. In addition, the cytosine residues in the gap of ISIS 384073 and in the wings of ISIS 392056, ISIS 392057, ISIS 392061 and ISIS 392063 are replaced with 5-methylcytosines. Antisense compounds target published PTEN nucleic acids, including Genbank Accession No. U92437.1 (SEQ ID
# Mice were sacrificed 72 hours following injection to determine serum transaminase levels (Table 47); liver and spleen weights (Table 47); and PTEN mRNA levels in liver, kidney and fat (Table 48), according to procedures described herein and well know to one of ordinary skill in the art.
# GCGR mRNA = GCGR mRNA levels in liver and estimated ED50, C57/BL6 mice, single i.p. dose of MOE and methyleneoxy BNA gapmers (Tables 44, 45); type: in vivo, mouse; details: liver
# Description: Eight-week old male C57/BL6 mice (Jackson Laboratory, Bar Harbor, Me.) were administered a single dose of GCGR antisense compound by intraperitonel (i.p.) injection at a concentration of 10, 3.2, 1, and 0.32 μmol·kg. Each dose group consisted of four animals. Shown in Table 43 are the sequences, motifs and conjugates of the GCGR antisense compounds used in this study. Bolded residues indicate 2′-O-methoxyethyl (2′-MOE) modifications and the italicized residues indicate methyleneoxy (4′-CH2—O-2′) BNA modifications. All antisense compounds comprise phosphorothioate internucleoside linkages throughout and each cytosine is replaced with 5-methylcytosine. GCGR antisense compounds target published GCGR nucleic acids, including Genbank Accession No. BC031885.1 (SEQ ID NO: 7).
# To determine whether the phenotypic changes shown above correlated with a decrease in GCGR mRNA, treated animals were evaluated for levels of target mRNA in liver by RT, real time PCR according to methods described herein. Table 44 show results from direct comparisons of the antisense compounds targeting GCGR nucleic acid for their effect on target expression. Results are expressed as percent of saline control.
substance,measurement,setting,value
327131 (antisense eA*eT*eG*dT*dT*dG*dG*d[5mC]*d[5mC]*dG*dT*eG*eG*eT) [compound 327131],percent reduction in GCGR mRNA,monkey GCGR mRNA; 25 nM,0%
same,percent reduction in GCGR mRNA,monkey GCGR mRNA; 50 nM,−8%
same,percent reduction in GCGR mRNA,monkey GCGR mRNA; 100 nM,−36%
same,percent reduction in GCGR mRNA,monkey GCGR mRNA; 200 nM,−36%
384073 (antisense lG*lC*lT*dA*dG*d[5mC]*d[5mC]*dT*d[5mC]*dT*dG*dG*dA*lT*lT*lT) [compound 384073],% PTEN mRNA levels in Fat,PTEN mRNA,77%
same,% PTEN mRNA levels in Kidney,PTEN mRNA,74%
same,% PTEN mRNA levels in Liver,PTEN mRNA,24%
"396145 (ATGGCTTCTCCATCATATCC; 5-10-5 MOE gapmer, chemistry not fully specified) [compound 396145]",GCGR mRNA levels,GCGR mRNA; 3.2 μmol/kg single i.p.,33% of saline control
same,GCGR mRNA levels,GCGR mRNA; 10 μmol/kg single i.p.,8% of saline control
"396147 (CTTGGGCATGCTCGTCAGTC; 5-10-5 MOE gapmer, chemistry not fully specified) [compound 396147]",GCGR mRNA levels,GCGR mRNA; 3.2 μmol/kg single i.p.,68% of saline control
same,GCGR mRNA levels,GCGR mRNA; 10 μmol/kg single i.p.,28% of saline control
